Usually EC50 stands for the midpoint of the concentration-response curve. As usually defined, the IC50 is the concentration needed to halve the response being measured.

Like-named read-outs stand apart in the source and are kept apart here. Some results are limits rather than exact numbers.

Consider 21 molecules from US6319929A, “Suksdorfin analogs, compositions thereof, and methods for making and using thereof” (priority 1998, dated 2001).

For series [1], the system named is HIV-1 replication in H9 cells. The series can be described thus: HIV-1 replication inhibition in acutely infected H9 lymphocytes (p24 antigen ELISA). The format is cell-based, HIV-1 (IIIB strain). The conditions noted are these: for IC50: Human immunodeficiency virus 1, read-out: IC50 (μM)^b. As for the experimental part: (§1) HIV inhibition assay. The HIV inhibition was measured as described herein. Briefly, H9 cells, a T cell line, (3.5×10^6 cells/ml) were incubated in the presence or absence of HIV-1 (IIIB strain, 0.01-0.1 TCID50 /cell) for 1 hour at 37° C. Cells were washed thoroughly and resuspended at a final concentration of 2×10^5 cells/ml in the presence or absence of compound. After incubation for 3-4 days at 37° C., the cell density of uninfected cultures was determined by cell count to assess toxicity of the drug. An aliquot of each cell-free supernatant was assayed by p24 antigen ELISA to quantitate the amount of HIV-1 present in the infected cultures. Test compounds were considered to be active at a particular concentration if p24 antigen levels were less than 70% of infected, untreated controls and were nontoxic to uninfected H9 cells.
(§2) HIV Growth Inhibition Assay: The T cell line, H9, and the promonocytic cell line, U937, were maintained separately in continuous culture with complete medium (RPMI 1640 and […] fetal calf serum (FCS) at 5% CO2 and 37° C. Cell lines were used in experiments only when in log phase of growth; whereas, uninfected peripheral blood mononuclear cells (PBMCs) were first stimulated with PHA (1 μg/ml) for 3 days. All cell targets were incubated with HIV-1 (IIIB isolate, TCID50 10 ^4 IU/mi, at a multiplicity of infection of 0.1-0.01 IU/cell) for 1 hour at 37° C. and 5% CO2. The cell lines and PBMCs were washed thoroughly to remove unabsorbed virions and resuspended at 4×10^5 cells/ml in complete medium or complete medium with 10% v/v interleukin […] IL-2, respectively. Aliquots ( ml) were placed in wells of 24-well culture plates containing an equal volume of test compound (diluted in the appropriate culture medium). After incubation for 4 days at 37° C., cell density of uninfected cultures was determined by counting cells in a Coulter counter to assess toxicity of the test compound. A p24 antigen ELISA assay was used to determine the level of virus released in the medium of the HIV-infected cultures. The p24 antigen assay uses a HIV-1 anti-p24 specific monoclonal antibody as the capture antibody coated-on 96-well plates. Following a sample incubation period, rabbit serum containing antibodies for HIV-1 p24 is used to tag any p24 "captured" onto the microtiter well surface. Peroxidase conjugated goat anti-rabbit serum is then used to tag HIV-1 p24 specific rabbit antibodies which have complexed with captured p24. […] The cut-off for the p24 ELISA assay is 12. pg/ml. P24 in the culture medium was quantitated against a standard curve containing known amounts of p24. The effective (EC50) and inhibitory (IC50) concentrations (for anti-HIV activity and cytotoxicity, respectively) were determined graphically. Both the EC50 and IC50 values were calculated by plotting drug concentration versus percent inhibition, and then identifying a 50% inhibition value from the graph.
(In general: In an ELISA, binding on a coated surface is turned into a signal by an enzyme label.)

Series [2] deals with uninfected H9 cells. The series can be described thus: Toxicity to uninfected H9 cells (cell growth). The format is cell-based. The conditions noted are these: Homo sapiens. The procedure: as §1, §2
In series [3] the test system is chronically HIV-1 infected ACH-2 cells. The series can be described thus: Virus expression from chronically HIV-1 infected T cell line ACH-2 (p24 antigen ELISA). The conditions noted are these: ACH-2 cells; 4320 min. The series is classed as cell-based. The procedure: Effects of suksdorfin analogs on Chronically HIV-1 infected cells. The experimental design is as follows: The phorbol ester, PMA (10^-8 M) and various concentrations of suksdorfin were either added or not added to both the chronically HIV-1 infected T cell line (ACH-2) and to the chronically HIV-1 infected monocytic cell line (U1). Cell-free supernatant was collected 72 hours post culture for p24 antigen ELISA.
Results (Table 11) from adding compound 16 to the chronically HIV-infected T cell line, ACH-2, according to methods in above examples. ACH-2 are a chronically HIV-1 infected T cell line. It was derived from A3.01 cells which is a subclone of the CEM cell line. The data below indicates the following points:
Chronically HIV-1 infected cell lines. HIV-1 chronically infected T cell line, ACH-2^12, and HIV-1 chronically infected promonocytic cell line, U1 13, were continuously maintained in RPMI 1640 with 10% fetal calf serum (FCS). For experiments, the cell lines were only used in the […] of growth. Cells (0.5×10^6 cells/well) and either various concentrations of suksdorfin or medium alone were added to 24-well plates in the presence or absence of PMA (10^-8 M). After 72 hours at 37° C. and 5% CO2, an aliquot of the cell-free supernatants were collected and analyzed for p24 antigen by ELISA (see below for details of p24 antigen ELISA).

The mark [4] stands for this setting: Human immunodeficiency virus 1, H9, Table 3, H9 lymphocytes, read-out: EC50.
[5] abbreviates: H9, Table 3, H9 lymphocytes, read-out: IC50.
Setting [6] is: Human immunodeficiency virus 1, H9, acutely infected H9 cells, concentration which inhibits viral replication by 50%, Inactive = No suppression of HIV-1 replication in H9 cells, read-out: EC50.
Where [7] appears, read: Table 14, concentration which inhibits viral replication by 50%, Inactive = No suppression of HIV-1 replication in H9 cells.
[8] abbreviates: IC50 for cell growth inhibition divided by EC50 for HIV inhibition, H9.
Where [9] appears, read: H9, Table 14, concentration which inhibits uninfected cell growth by 50%, read-out: IC50 (μM)^a.
Where [10] appears, read: H9, concentration which inhibits uninfected cell growth by 50%, read-out: IC50.
Setting [11] is: Human immunodeficiency virus 1, H9, Table 17, acutely infected H9 lymphocytes, read-out: EC50.
Where [12] appears, read: H9, Table 17, uninfected H9 cell growth, read-out: IC50.
[13] abbreviates: acutely infected H9 cells, concentration which inhibits viral replication by 50%, Inactive = No suppression of HIV-1 replication in H9 cells.

`CC(=O)OC1Cc2c(ccc3ccc(=O)oc23)OC1(C)C` (racemic) [Compound 25]: the EC50 in series [1] (setting [4]) was > 69 µM.
Consider `CC(C)CC(=O)OC1Cc2c(ccc3ccc(=O)oc23)OC1(C)C` (racemic) [Compound 26], for which the EC50 in series [1] (setting [4]) was > 12 µM.
Still for that read-out and setting: next, `CC(=O)O[C@@H]1c2c(ccc3ccc(=O)oc23)OC(C)(C)[C@@H]1OC(C)=O` (relative stereo) [Compound 12]: > 289 µM.
Take `CC(C)CC(=O)O[C@@H]1c2c(ccc3ccc(=O)oc23)OC(C)(C)[C@@H]1OC(=O)CC(C)C` (relative stereo) [Compound 13]: the half-maximal effective concentration (EC50) in series [1] (Human immunodeficiency virus 1, H9, Table 3, H9 lymphocytes) is > 232 µM.
For the molecule `CC(=O)O[C@@H]1[C@@H](OC(=O)c2cccc(Cl)c2)c2c(ccc3ccc(=O)oc23)OC1(C)C` (relative stereo) [Compound 27], in series [1] (setting [4]), the EC50 was > 45 µM.
With `CC(C)CC(=O)O[C@@H]1[C@@H](OC(=O)c2cccc(Cl)c2)c2c(ccc3ccc(=O)oc23)OC1(C)C` (relative stereo) [Compound 28], in series [1] (setting [4]), the EC50 was 8.3 µM. In series [1] (Table 3, H9 lymphocytes), the “Therapeutic Index” value turned out to be 1.2. The IC50 in series [2] (setting [5]) is 10 µM.
Taken in the same sequence, the figures for `CO[C@@H]1[C@@H](OC(=O)c2cccc(Cl)c2)c2c(ccc3ccc(=O)oc23)OC1(C)C` (relative stereo) [Compound 29] were 241 µM, > 0.2 and > 48 µM.
Regarding `CC1(C)Oc2ccc3ccc(=O)oc3c2[C@H](OC(=O)c2cccc(Cl)c2)[C@H]1OCc1ccccc1` (relative stereo) [Compound 30], the EC50 in series [1] (setting [4]) worked out at 6.1 µM.
Still for that read-out and setting: next, `CCC(C)C(=O)OC1C(O)c2c(ccc3ccc(=O)oc23)OC1(C)C` (centres unmarked) [8 and 9]: > 57.8 µM; `CCC(C)C(=O)OC1c2c(ccc3ccc(=O)oc23)OC(C)(C)C1O` (centres unmarked) [10 and 11]: > 57.8 µM; `CCC(C)C(=O)OC1c2c(ccc3ccc(=O)oc23)OC(C)(C)C1OC(=O)C(C)CC` (centres unmarked) [14 and 15]: 7 µM.
Regarding `COc1c2ccoc2cc2oc(=O)ccc12` [Bergapten, bergapten, reference compound], the EC50 in series [1] (setting [6]) worked out at 30.1 µM. Moreover, the IC50 was 30.1 µM in series [1] (setting [7]), > 92.6 µM in series [2] (setting [9]) and > 92.6 µM in series [2] (setting [10]). For the same molecule, the “Therapeutic Index” value in series [1] (setting [8]) and in series [1] (Table 14) was > 3.1 each time.
Consider `C/C=C(/C)C(=O)OC(C)(C)[C@@H]1Cc2c(ccc3ccc(=O)oc23)O1` [Columbianadin, columbianadin, reference compound], for which the EC50 in series [1] (setting [6]) was found to be 4.6 µM. In addition, the IC50 in series [1] (setting [7]) is 4.6 µM; in series [2] (setting [9]), > 6.1 µM; in series [2] (setting [10]), > 6.1 µM. In addition, the “Therapeutic Index” value in series [1] (setting [8]) and in series [1] (Table 14) was > 1.3 throughout.
For the molecule `CC1(C)Oc2ccc3ccc(=O)oc3c2[C@H](OC(=O)[C@@]23CC[C@@](C)(C(=O)O2)C3(C)C)[C@@H]1OC(=O)[C@@]12CC[C@@](C)(C(=O)O1)C2(C)C` [Compound 17, 3',4'-Di-O-(-)-Camphanoyl-(-)-cis-Khellactone], the EC50 in series [1] (setting [4]) and in series [1] (setting [11]) was 51 µM each time. For the same molecule, the “Therapeutic Index” value is > 1.3 in series [1] (setting [8]); > 33.3 in series [1] (Table 3, H9 lymphocytes); > 33.3 in series [1] (Table 17, H9). The “anti-HIV activity in H9 cells (in words)” value in series [1] (acutely infected H9 cells) is given as “much less activity than that of compound 16”; in series [1] (acutely infected H9 cells, listed as 3), “much less anti-HIV activity than 2”. Also, the IC50 in series [2] (setting [5]) and in series [2] (setting [12]) was 1700 µM each time.
For the molecule `CC1(C)Oc2ccc3ccc(=O)oc3c2[C@H](OC(=O)[C@@]23CC[C@@](C)(C(=O)O2)C3(C)C)[C@H]1OC(=O)[C@@]12CC[C@@](C)(C(=O)O1)C2(C)C` [Compound 44, 31'4'-Di-O-(-)-Camphanoyl-(-)-trans-Khellactone], the “Therapeutic Index” value in series [1] (Table 3, H9 lymphocytes) was > 1; in series [1] (Table 14) it was 1.3; in series [1] (Table 17, H9), > 1. In addition, the “anti-HIV activity in H9 cells (in words)” value in series [1] (acutely infected H9 cells) is “much less activity than that of compound 16”; in series [1] (acutely infected H9 cells, listed as 4) it was “much less anti-HIV activity than 2”.
Take `CC1(C)Oc2ccc3ccc(=O)oc3c2[C@@H](OC(=O)[C@@]23CC[C@@](C)(C(=O)O2)C3(C)C)[C@@H]1OC(=O)[C@@]12CC[C@@](C)(C(=O)O1)C2(C)C` [Compound 45, 3', 4'-Di-O-(-)-Camphanoyl-(+)-trans-Khellactone]: the EC50 in series [1] (setting [4]) and in series [1] (setting [11]) was 32 µM each time. Further, the “Therapeutic Index” value in series [1] (Table 3, H9 lymphocytes) was > 1; in series [1] (Table 17, H9) it was > 1. Moreover, the “anti-HIV activity in H9 cells (in words)” value in series [1] (acutely infected H9 cells) was “much less activity than that of compound 16”; in series [1] (acutely infected H9 cells, listed as 5) it was “much less anti-HIV activity than 2”. Moreover, the IC50 in series [2] (setting [5]) was < 32 µM; in series [2] (setting [12]) it was > 32 µM.
Regarding `COc1cc2cc(Oc3ccc4ccc(=O)oc4c3)c(=O)oc2cc1O` [Daphnoretin, daphnoretin, reference compound], the “IC50 (μM)^b” value in series [1] (setting [7]) is reported as “Inactive”. The “anti-HIV activity in H9 cells (in words)” value in series [1] (acutely infected H9 cells) was “no activity”. The EC50 entry in series [1] (setting [13]) is listed as “Inactive”.
`CC(C)(O)[C@H]1Cc2cc3ccc(=O)oc3cc2O1` [Nodakenetin, nodakenetin, reference compound]: the “IC50 (μM)^b” value in series [1] (setting [7]) is on record as “Inactive”. Also, the EC50 entry in series [1] (setting [13]) is “Inactive”.
In the case of `CC(C)(O[C@@H]1O[C@H](CO)[C@@H](O)[C@H](O)[C@H]1O)[C@H]1Cc2cc3ccc(=O)oc3cc2O1` [Nodakenin, nodakenin, reference compound], the “IC50 (μM)^b” value in series [1] (setting [7]) is on record as “Inactive”. In addition, the EC50 entry in series [1] (setting [13]) is “Inactive”.
In the case of `CCCCCCCCCCCCCC(=O)O[C@@H]1[C@@H](C)[C@@]2(O)[C@@H](C=C(CO)C[C@]3(O)C(=O)C(C)=C[C@@H]23)[C@@H]2C(C)(C)[C@]12OC(C)=O` [PMA, phorbol 12-myristate 13-acetate, reference compound], the “induction of virus replication compared to medium alone” value in series [3] is reported as 27 fold.
acetylnodakenin [reference compound]: the “IC50 (μM)^b” value in series [1] (setting [7]) is given as “Inactive”. The EC50 entry in series [1] (setting [13]) is listed as “Inactive”.
